The values below come from patent US8574563B2 (Bristol-Myers Squibb Company, priority 2006, dated 2013).

The assay deals with HCV 1b-377-neo replicon cells. The assay is described as follows: HCV replicon assay, HCV 1b-377-neo replicon cells (1b FRET). The format is cell-based, Hepatitis C virus genotype 1b. As to conditions: Hepatitis C virus, HCV 1b-377-neo replicon cells; HCV 1b genotype; read-out: EC50 range against HCV 1b (Table 2, Range). The gist of the method: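 Compounds were tested in genotype 1b subgenomic replicon cells carrying a neomycin marker, alongside a matched replicon line with an NS5A Y2065H substitution that confers resistance to a reference NS5A inhibitor.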

As to `CCCCN[C@@H](C(=O)N1CCC[C@H]1c1nc(-c2ccc(-c3ccc(-c4cnc([C@@H]5CCCN5C(=O)[C@H](NCCCC)c5ccccc5)[nH]4)cc3)cc2)c[nH]1)c1ccccc1` [Example F17, N-((1R)-2-((2S)-2-(4-(4′-(2-((2S)-1-((2R)-2-(butylamino)-2-phenylacetyl)-2-pyrrolidinyl)-1H-imidazol-5-yl)-4-biphenylyl)-1H-imidazol-2-yl)-1-pyrrolidinyl)-2-oxo-1-phenylethyl)-1-butanamine], the EC50 lay in the range of 0.001 to 0.999 nM.

For `CCCOC(=O)N[C@@H](C)C(=O)N1CCC[C@H]1c1nc(-c2ccc(-c3ccc(-c4cnc([C@@H]5CCCN5C(=O)[C@H](C)NC(=O)OCCC)[nH]4)cc3)cc2)c[nH]1` [Example F20, propyl ((1S)-1-methyl-2-oxo-2-((2S)-2-(4-(4′-(2-((2S)-1-(N-(propoxycarbonyl)-L-alanyl)-2-pyrrolidinyl)-1H-imidazol-5-yl)-4-biphenylyl)-1H-imidazol-2-yl)-1-pyrrolidinyl)ethyl)carbamate], the EC50 fell in the range of 100 to 999 nM.

For `CCCCOC(=O)N[C@@H](C)C(=O)N1CCC[C@H]1c1nc(-c2ccc(-c3ccc(-c4cnc([C@@H]5CCCN5C(=O)[C@H](C)NC(=O)OCCCC)[nH]4)cc3)cc2)c[nH]1` [Example F21, butyl ((1S)-2-((2S)-2-(4-(4′-(2-((2S)-1-(N-(butoxycarbonyl)-L-alanyl)-2-pyrrolidinyl)-1H-imidazol-5-yl)-4-biphenylyl)-1H-imidazol-2-yl)-1-pyrrolidinyl)-1-methyl-2-oxoethyl)carbamate], the EC50 lay in the range of 100 to 999 nM.

For `CC(C)[C@H](O)C(=O)N[C@@H](C)C(=O)N1CCC[C@H]1c1nc(-c2ccc(-c3ccc(-c4cnc([C@@H]5CCCN5C(=O)[C@H](C)NC(=O)[C@@H](O)C(C)C)[nH]4)cc3)cc2)c[nH]1` [Example F22, (2S)-2-hydroxy-N-((1S)-2-((2S)-2-(5-(4′-(2-((2S)-1-(N-((2S)-2-hydroxy-3-methylbutanoyl)-L-alanyl)-2-pyrrolidinyl)-1H-imidazol-4-yl)-4-biphenylyl)-1H-imidazol-2-yl)-1-pyrrolidinyl)-1-methyl-2-oxoethyl)-3-methylbutanamide], the EC50 lay in the range of 100 to 999 nM.

As for `CCOC(=O)N[C@H](C(=O)N1CCC[C@H]1c1nc(-c2ccc(-c3ccc(-c4c[nH]c([C@@H]5CCCN5C(=O)[C@@H](NC(=O)OCC)C(C)C)n4)cc3)cc2)c[nH]1)C(C)C` [Example F25, ethyl ((1S)-1-(((2S)-2-(4-(4′-(2-((2S)-1-((2S)-2-((ethoxycarbonyl)amino)-3-methylbutanoyl)-2-pyrrolidinyl)-1H-imidazol-4-yl)-4-biphenylyl)-1H-imidazol-2-yl)-1-pyrrolidinyl)carbonyl)-2-methylpropyl)carbamate], the half-maximal effective concentration (EC50) fell in the range of 0.001 to 0.999 nM.

`CC(C)OC(=O)N[C@H](C(=O)N1CCC[C@H]1c1nc(-c2ccc(-c3ccc(-c4c[nH]c([C@@H]5CCCN5C(=O)[C@@H](NC(=O)OC(C)C)C(C)C)n4)cc3)cc2)c[nH]1)C(C)C` [Example F26, isopropyl ((1S)-1-(((2S)-2-(4-(4′-(2-((2S)-1-((2S)-2-((isopropoxycarbonyl)amino)-3-methylbutanoyl)-2-pyrrolidinyl)-1H-imidazol-4-yl)-4-biphenylyl)-1H-imidazol-2-yl)-1-pyrrolidinyl)carbonyl)-2-methylpropyl)carbamate]: the EC50 was in the range of 1 to 99 nM.

On to `C[C@H](O)C(=O)N1CCC[C@H]1c1nc(-c2ccc(-c3ccc(-c4cnc([C@@H]5CCCN5C(=O)[C@H](C)O)[nH]4)cc3)cc2)c[nH]1` [Example F27, (2S)-1-((2S)-2-(4-(4′-(2-((2S)-1-((2S)-2-hydroxypropanoyl)-2-pyrrolidinyl)-1H-imidazol-5-yl)-4-biphenylyl)-1H-imidazol-2-yl)-1-pyrrolidinyl)-1-oxo-2-propanol], for which the EC50 lay in the range of 1 to 99 nM.

Take `CC(C)C[C@@H](C(=O)N1CCC[C@H]1c1nc(-c2ccc(-c3ccc(-c4cnc([C@@H]5CCCN5C(=O)[C@H](CC(C)C)N(C)C(=O)OC(C)(C)C)[nH]4)cc3)cc2)c[nH]1)N(C)C(=O)OC(C)(C)C` [Example F28, tert-butyl ((1S)-1-(((2S)-2-(5-(4′-(2-((2S)-1-((2S)-2-((tert-butoxycarbonyl)(methyl)amino)-4-methylpentanoyl)-2-pyrrolidinyl)-1H-imidazol-4-yl)-4-biphenylyl)-1H-imidazol-2-yl)-1-pyrrolidinyl)carbonyl)-3-methylbutyl)methylcarbamate]: the EC50 lay within 1 to 99 nM.

`CCC(C)[C@@H](C(=O)N1CCC[C@H]1c1nc(-c2ccc(-c3ccc(-c4cnc([C@@H]5CCCN5C(=O)[C@H](C(C)CC)N(C)C(=O)OC(C)(C)C)[nH]4)cc3)cc2)c[nH]1)N(C)C(=O)OC(C)(C)C` (stereo partly drawn) [Example F29, tert-butyl ((1S)-1-(((2S)-2-(5-(4′-(2-((2S)-1-((2S)-2-((tert-butoxycarbonyl)(methyl)amino)-3-methylpentanoyl)-2-pyrrolidinyl)-1H-imidazol-4-yl)-4-biphenylyl)-1H-imidazol-2-yl)-1-pyrrolidinyl)carbonyl)-2-methylbutyl)methylcarbamate]: the EC50 lay within 1 to 99 nM.

Regarding `CC(C)[C@@H](C(=O)N1CCC[C@H]1c1nc(-c2ccc(-c3ccc(-c4cnc([C@@H]5CCCN5C(=O)[C@H](C(C)C)N(C)C(=O)OC(C)(C)C)[nH]4)cc3)cc2)c[nH]1)N(C)C(=O)OC(C)(C)C` [Example F30, tert-butyl ((1S)-1-(((2S)-2-(5-(4′-(2-((2S)-1-((2S)-2-((tert-butoxycarbonyl)(methyl)amino)-3-methylbutanoyl)-2-pyrrolidinyl)-1H-imidazol-4-yl)-4-biphenylyl)-1H-imidazol-2-yl)-1-pyrrolidinyl)carbonyl)-2-methylpropyl)methylcarbamate], the EC50 was in the range of 1 to 99 nM.

`CN[C@@H](CC(C)C)C(=O)N1CCC[C@H]1c1nc(-c2ccc(-c3ccc(-c4cnc([C@@H]5CCCN5C(=O)[C@H](CC(C)C)NC)[nH]4)cc3)cc2)c[nH]1` [Example F32, (2S)-N,4-dimethyl-1-((2S)-2-(4-(4′-(2-((2S)-1-((2S)-4-methyl-2-(methylamino)pentanoyl)-2-pyrrolidinyl)-1H-imidazol-5-yl)-4-biphenylyl)-1H-imidazol-2-yl)-1-pyrrolidinyl)-1-oxo-2-pentanamine]: the EC50 lay within 100 to 999 nM.

Take `CCC(C)[C@H](NC)C(=O)N1CCC[C@H]1c1nc(-c2ccc(-c3ccc(-c4cnc([C@@H]5CCCN5C(=O)[C@@H](NC)C(C)CC)[nH]4)cc3)cc2)c[nH]1` (stereo partly drawn) [Example F33, (2S)-N,3-dimethyl-1-((2S)-2-(4-(4′-(2-((2S)-1-((2S)-3-methyl-2-(methylamino)pentanoyl)-2-pyrrolidinyl)-1H-imidazol-5-yl)-4-biphenylyl)-1H-imidazol-2-yl)-1-pyrrolidinyl)-1-oxo-2-pentanamine]: the EC50 was 100 to 999 nM.

As to `CN[C@H](C(=O)N1CCC[C@H]1c1nc(-c2ccc(-c3ccc(-c4cnc([C@@H]5CCCN5C(=O)[C@@H](NC)C(C)C)[nH]4)cc3)cc2)c[nH]1)C(C)C` [Example F34, (2S)-N,3-dimethyl-1-((2S)-2-(4-(4′-(2-((2S)-1-((2S)-3-methyl-2-(methylamino)butanoyl)-2-pyrrolidinyl)-1H-imidazol-5-yl)-4-biphenylyl)-1H-imidazol-2-yl)-1-pyrrolidinyl)-1-oxo-2-butanamine], the EC50 lay in the range of 1 to 99 nM.

Turning to `CC[C@@H](C)[C@H](NC)C(=O)N1CCC[C@H]1c1nc(-c2ccc(-c3ccc(-c4cnc([C@@H]5CCCN5C(=O)[C@@H](NC)[C@H](C)CC)[nH]4)cc3)cc2)c[nH]1` [Example F35, (2S,3R)-N,3-dimethyl-1-((2S)-2-(4-(4′-(2-((2S)-1-((2S,3R)-3-methyl-2-(methylamino)pentanoyl)-2-pyrrolidinyl)-1H-imidazol-5-yl)-4-biphenylyl)-1H-imidazol-2-yl)-1-pyrrolidinyl)-1-oxo-2-pentanamine], the EC50 fell in the range of 100 to 999 nM.

Consider `COC(=O)N[C@](C)(C(=O)N1CCC[C@H]1c1nc(-c2ccc(-c3ccc(-c4cnc([C@@H]5CCCN5C(=O)[C@@](C)(NC(=O)OC)C(C)C)[nH]4)cc3)cc2)c[nH]1)C(C)C` [Example F37, methyl ((1S)-1-(((2S)-2-(4-(4′-(2-((2S)-1-((2S)-2-((methoxycarbonyl)amino)-2,3-dimethylbutanoyl)-2-pyrrolidinyl)-1H-imidazol-5-yl)-4-biphenylyl)-1H-imidazol-2-yl)-1-pyrrolidinyl)carbonyl)-1,2-dimethylpropyl)carbamate], for which the EC50 lay in the range of 100 to 999 nM.

With `COC(=O)N[C@H](C(=O)N1CCC[C@H]1c1nc(-c2ccc(-c3ccc(-c4cnc([C@@H]5CCCN5C(=O)[C@@H](NC(=O)OC)C5CCOCC5)[nH]4)cc3)cc2)c[nH]1)C1CCOCC1` [Example F38, methyl ((1S)-2-((2S)-2-(4-(4′-(2-((2S)-1-((2S)-2-((methoxycarbonyl)amino)-2-(tetrahydro-2H-pyran-4-yl)acetyl)-2-pyrrolidinyl)-1H-imidazol-5-yl)-4-biphenylyl)-1H-imidazol-2-yl)-1-pyrrolidinyl)-2-oxo-1-(tetrahydro-2H-pyran-4-yl)ethyl)carbamate], the EC50 was 0.001 to 0.999 nM.

Consider `COC(=O)NC(C(=O)N1CCC[C@H]1c1nc(-c2ccc(-c3ccc(-c4cnc([C@@H]5CCCN5C(=O)C(NC(=O)OC)C5CCOCC5)[nH]4)cc3)cc2)c[nH]1)C1CCOCC1` (stereo partly drawn) [Example F39, methyl (2-((2S)-2-(4-(4′-(2-((2S)-1-(((methoxycarbonyl)amino)(tetrahydro-2H-pyran-4-yl)acetyl)-2-pyrrolidinyl)-1H-imidazol-5-yl)-4-biphenylyl)-1H-imidazol-2-yl)-1-pyrrolidinyl)-2-oxo-1-(tetrahydro-2H-pyran-4-yl)ethyl)carbamate], for which the half-maximal effective concentration (EC50) lay in the range of 0.001 to 0.999 nM.

With `CCN[C@@H](C(=O)N1CCC[C@H]1c1ncc(-c2ccc(-c3ccc(-c4c[nH]c([C@@H]5CCCN5C(=O)[C@H](C)NC(=O)OC)n4)cc3)cc2)[nH]1)c1ccccc1` [Example F41, methyl ((1S)-2-((2S)-2-(4-(4′-(2-((2S)-1-((2R)-2-(ethylamino)-2-phenylacetyl)-2-pyrrolidinyl)-1H-imidazol-5-yl)-4-biphenylyl)-1H-imidazol-2-yl)-1-pyrrolidinyl)-1-methyl-2-oxoethyl)carbamate], the EC50 lay within 0.001 to 0.999 nM.
